The test relates to Mus musculus. Put plainly: Antiamnesic activity in sc dosed mouse after 30 mins by passive avoidance test. The format is functional. Conditions: 0.5 h, read-out: MED.
Consider `CCCN1CCN(S(=O)(=O)c2ccc(F)cc2)CC1`, for which the minimal effective dose stood at 1 mg/kg.

With `CC(=O)N1CCN(C(=O)c2ccccc2)C(=O)C1`, the minimal effective dose worked out at 10 mg/kg. With `CCC(=O)N1CCC(CNS(=O)(=O)c2ccc(F)cc2)CC1` the figure was 1 mg/kg; with `CCC(=O)N1CCCC(NS(=O)(=O)c2ccc(F)cc2)C1` (stereo unspecified), 10 mg/kg; with `CC(C)S(=O)(=O)NC1CCCN(C(=O)c2ccccc2)C1` (stereo unspecified), 1 mg/kg. With `CCC(=O)NC1CCCN(C(C)=O)C1` (stereo unspecified) the figure was 1 mg/kg; with `CCC(=O)N1CCN(C(=O)c2ccccc2)CC1=O`, 10 mg/kg; with `CCC(=O)NCC1CCCN(S(=O)(=O)c2ccc(F)cc2)C1` (stereo unspecified), 10 mg/kg.

Consider `CCC(=O)N1CCN(Cc2ccccc2)C(=O)C1`, for which the minimal effective dose turned out to be 10 mg/kg. With `CC(C)S(=O)(=O)N1CCCC(NS(=O)(=O)c2ccc(F)cc2)C1` (stereo unspecified) the figure was 10 mg/kg; with `CC(=O)N1CCN(S(=O)(=O)c2ccc(F)cc2)CC1=O`, 0.3 mg/kg. With `CCC(=O)N1CCN(S(=O)(=O)c2ccc(F)cc2)CC1=O` the figure was 0.3 mg/kg; with `CC(=O)N1CCN(C(=O)c2ccccc2)CC1=O`, 10 mg/kg.

Regarding `CCC(=O)N1CCCC(NC(=O)c2ccccc2)C1` (stereo unspecified), the minimal effective dose came out at 1 mg/kg. Under `CCC(=O)NC1CCCN(S(=O)(=O)c2ccc(F)cc2)C1` (stereo unspecified) stands 1 mg/kg. In the case of `CC(=O)NC1CCCN(S(=O)(=O)c2ccc(F)cc2)C1` (stereo unspecified), the minimal effective dose was 1 mg/kg.

As for `CCC(=O)N1CCN(Cc2ccccc2)CC1`, the minimal effective dose is 10 mg/kg. For the molecule `CC(=O)N1CCN(S(=O)(=O)c2ccc(F)cc2)CC1`, the minimal effective dose was found to be 0.01 mg/kg. With `CC(=O)N1CCC(NS(=O)(=O)c2ccc(F)cc2)CC1` the figure was 0.1 mg/kg; with `CC(=O)N1CCN(C(=O)c2ccccc2)CC1`, 10 mg/kg.

`CC(C)S(=O)(=O)NC1CCCN(S(=O)(=O)c2ccc(F)cc2)C1` (stereo unspecified): the minimal effective dose is 1 mg/kg.

With `O=S(=O)(NCC1CCN(S(=O)(=O)c2ccc(F)cc2)CC1)c1ccc(F)cc1`, the minimal effective dose was found to be 1 mg/kg.

Regarding `CCC(=O)NCC1CCN(C(=O)c2ccccc2)CC1`, the minimal effective dose worked out at 1 mg/kg. With `CC(=O)NCC1CCCN(S(=O)(=O)c2ccc(F)cc2)C1` (stereo unspecified) the figure was 10 mg/kg.

As to `CC(=O)N1CCCC(NS(=O)(=O)c2ccc(F)cc2)C1` (stereo unspecified), the minimal effective dose was determined as 1 mg/kg. With `CCC(=O)N1CCC(NS(=O)(=O)c2ccc(F)cc2)CC1` the figure was 10 mg/kg; with `CCC(=O)NC1CCN(S(=O)(=O)c2ccc(F)cc2)CC1`, 0.1 mg/kg; with `CCC(=O)NC1CCN(C(=O)c2ccccc2)CC1`, 0.1 mg/kg. In the case of `CCC(=O)N1CCN(S(=O)(=O)c2ccc(F)cc2)CC1`, the minimal effective dose came to 0.01 mg/kg.

As for `CC(=O)NC1CCN(S(=O)(=O)c2ccc(F)cc2)CC1` [SAPUNIFIRAM], the minimal effective dose is 0.01 mg/kg. Under `CCC(=O)N1CCN(C(=O)c2ccccc2)CC1` [SUNIFIRAM] stands 0.001 mg/kg.

These data come from ChEMBL document CHEMBL1143256, “Design, synthesis and preliminary pharmacological evaluation of new piperidine and piperazine derivatives as cognition-enhancers” (2008).
